What was measured:
Huh7.5 cells = assay: Cytotoxicity in Huh7.5 cells, nuclei count (Example 6); format: cell-based, human; conditions: Huh7.5 cells; read-out: CC50
SARS-CoV-2 [1] = assay: SARS-CoV-2 infection assay in Calu-3 cells, nucleocapsid immunofluorescence (Example 6); conditions: MOI 0.01, 44 hour
TMPRSS2-Vero cells = assay: Cytotoxicity in TMPRSS2-Vero cells, nuclei count (Example 6); format: cell-based; conditions: TMPRSS2-Vero cells; read-out: CC50
Calu-3 cells = assay: Cytotoxicity in Calu-3 cells, nuclei count or CellTiter-Glo (Example 6); conditions: for select compounds up to 100 μM by CellTiter-Glo
Description: After which an equal volume of CellTiter-Glo reagent (Cat. #G7570, Promega, Madison, WI) was added, mixed and luminescence recorded on a Veritas Microplate Luminometer (Turner BioSystems) according to manufacturer recommendations.

SARS-CoV-2 [2] = assay: SARS-CoV-2 infection assay in Huh7.5 cells, nucleocapsid immunofluorescence (Example 6); format: cell-based; conditions: MOI 0.1, 48 hours
SARS-CoV-2 [3] = assay: SARS-CoV-2 infection assay in TMPRSS2-Vero cells, nucleocapsid immunofluorescence (Example 6); format: cell-based; conditions: MOI 0.01, 32 hours
HCoV-229E = format: cell-based, human Coronavirus 229E
HIV-1 = conditions: HIV infected human PBMCs
Description: Antiviral activities were determined in HIV infected human PBMCs.

HFF cells = assay: Persistence of TFVpp in HFF cells after a 3 day exposure
Description: HFF cells were exposed to 1 micromolar drug for 3 days. At days 0, 1, 2, 4, 7, 14, 21, and 28, cells were trypsinized, counted, and processed for LC/MS measurement of TFVpp. Data were expressed at ftg/cell. nm=not meaningful; ftg—gemtogram.

Compound | CC50 (Huh7.5 cells) [µM] | EC50 (SARS-CoV-2 [1]) [nM] | EC90 (SARS-CoV-2 [1]) [nM] | CC50 (TMPRSS2-Vero cells) [µM] | CC50 (Calu-3 cells) [µM] | EC50 (SARS-CoV-2 [2]) [nM] | EC90 (SARS-CoV-2 [2]) [nM] | EC50 (SARS-CoV-2 [3]) [nM] | EC90 (SARS-CoV-2 [3]) [nM] | EC50 (HCoV-229E) [nM] | EC90 (HCoV-229E) [nM] | CC50 (MRC-5 cells) [µM] | EC50 (HIV-1) | T1/2 of TFVpp (HFF cells) | Tmax of TFVpp (HFF cells) [days]
CCCCCCCCCCCCCCCCCCOC[C@H](COP(=O)(O)OC[C@H]1O[C@@](C#N)(c2ccc3c(N)ncnn23)[C@H](O)[C@@H]1O)OCc1cccc(F)c1 [Compound 15h, 1-O-Octadecyl-2-O-(3-fluoro-benzyl)-sn-glyceryl-phospho-RVn] | > 20 | 216 ± 62 | 548 ± 368 | > 20 | > 20 | 182 | 444 | 270 | 629 | 1400 ± 58 | 2800 ± 40 | 22.9 ± 0.1 |  |  | 
CCCCCCCCCCCCCCCCCCOC[C@H](COP(=O)(OCc1ccccc1)OC[C@H]1O[C@@](C#N)(c2ccc3c(N)ncnn23)[C@H](O)[C@@H]1O)OCc1ccccc1 (stereo partly drawn) [Compound 17, 1-O-Octadecyl-2-O-benzyl-sn-glyceryl-benzyl-phospho-RVn] | > 20 | 5320 ± 1390 | 10900 ± 5480 | > 20 | > 20 | 3540 | 16400 | 7440 | 15300 | 1500 ± 930 | 4270 ± 880 | > 50 |  |  | 
1-O-Octadecyl-2-O-(ethylcyclohexyl)-sn-glyceryl-phospho-RVn [Compound 15g] |  | 147 ± 32 | 1660 ± 798 |  | > 20 |  |  |  |  |  |  |  |  |  | 
CCCCCCCCCCCCCCOC[C@H](COP(=O)(O)OC[C@H]1O[C@@](C#N)(c2ccc3c(N)ncnn23)[C@H](O)[C@@H]1O)OCc1ccccc1 [Compound 15a, 1-O-Tetradecyl-2-O-benzyl-sn-glyceryl-phospho-RVn] | > 20 | 212 ± 25 | 536 ± 150 | > 20 | > 20 | 156 | 493 | 901 | 1690 | 760 ± 340 | 3250 | > 50 |  |  | 
CCCCCCCCCCCCCCCCCCOCCO[P@]1(=O)OC[C@H]2O[C@](C#N)(c3ccc4c(N)ncnn34)[C@H](O)[C@@H]2O1 [Compound 19-eq] |  | 2760 ± 808 | 19200 ± 12700 |  | > 20 |  |  |  |  |  |  |  |  |  | 
CCCCCCCC/C=C\CCCCCCCCOC[C@H](COP(=O)(O)OC[C@H]1O[C@@](C#N)(c2ccc3c(N)ncnn23)[C@H](O)[C@@H]1O)OCc1ccccc1 [Compound 15l, 1-O-Oleyl-2-O-benzyl-sn-glyceryl-phospho-RVn] | > 20 | 198 ± 77 | 294 ± 93 | > 20 | 79 ± 6.95 | 100 | 246 | 295 | 568 | 130 ± 29 | 260 ± 3.7 | > 50 |  |  | 
CCCCCCCCCCCCCCCCCCOC[C@H](COP(=O)(O)OC[C@H]1O[C@@](C#N)(c2ccc3c(N)ncnn23)[C@H](O)[C@@H]1O)OCc1ccc(C(F)(F)F)cc1 [Compound 15p, 1-O-Octadecyl-2-O-(4-trifluoromethyl)benzyl-sn-glyceryl-phospho-RVn] |  |  |  |  |  |  |  |  |  |  | 330 ± 39 | 13.9 ± 8.8 |  |  | 
CCCCCCCC/C=C\CCCCCCCCOCCOP(=O)(CO[C@H](C)Cn1cnc2c(N)nc(N)nc21)OCc1ccccc1 (stereo partly drawn) [OLE-Bn-PMPDAP, Oleyloxyethyl benzyl 9-(R)-[(2-phosphonomethoxy)propyl]-2,6-diaminopurine] |  |  |  |  |  |  |  |  |  |  |  |  | active |  | 
CCCCCCCCCCCCCCCCOC[C@H](COP(=O)(O)OC[C@H]1O[C@@](C#N)(c2ccc3c(N)ncnn23)[C@H](O)[C@@H]1O)OCc1ccccc1 [Compound 15b, 1-O-Hexadecyl-2-O-benzyl-sn-glyceryl-phospho-RVn] | > 20 | 101 ± 20 | 623 ± 272 | > 20 | 88.2 ± 8.89 | 130 | 309 | 395 | 810 | 560 ± 270 | 980 ± 380 | > 50 |  |  | 
CCCCCCCCCCCCCCCCCCOC[C@H](COP(=O)(O)OC[C@H]1O[C@@](C#N)(c2ccc3c(N)ncnn23)[C@H](O)[C@@H]1O)OCc1cccc(C(F)(F)F)c1 [Compound 15o, 1-O-Octadecyl-2-O-(3-trifluoromethyl)benzyl-sn-glyceryl-phospho-RVn] |  | 166 ± 68 | 278 ± 109 |  | > 20 |  |  |  |  | 160 ± 46 | 460 ± 270 | 16 ± 2.8 |  |  | 
CCCCCCCCCCCCCCCCCCOC[C@H](COP(=O)(O)OC[C@H]1O[C@@](C#N)(c2ccc3c(N)ncnn23)[C@H](O)[C@@H]1O)OCCCCCCCC [Compound 15f, 1-O-Octadecyl-2-O-octyl-sn-glyceryl-phospho-RVn] | > 20 | 410 ± 60 | 2310 ± 738 | > 20 | > 20 | 710 | 1710 | 1330 | 2350 | 120 ± 57 | 290 ± 58 | > 50 |  |  | 
CCCCCCCCCCCCCCCCOCCCOP(=O)(CO[C@H](C)Cn1cnc2c(N)ncnc21)OCc1ccccc1 (stereo partly drawn) [HDP-Bn-TFV] |  |  |  |  |  |  |  |  |  |  |  |  |  | 1.8 | 0
CCCCCCCCCCCCCCCCCCOC[C@H](COP1(=O)OC[C@H]2O[C@@](C#N)(c3ccc4c(N)ncnn34)[C@H](O)[C@@H]2O1)OCc1ccccc1 (stereo partly drawn) [Compound 18-eq, GS-441524-3′,5′-cyclic monophosphate, 1-O-octadecyl-2-O-benzyl-sn-glyceryl ester] |  | > 20000 | > 20000 |  | > 20 |  |  |  |  |  |  |  |  |  | 
CCCCCCCCCCCCCCCCCCOCC(COP(=O)(O)OC[C@H]1O[C@@](C#N)(c2ccc3c(N)ncnn23)[C@H](O)[C@@H]1O)OCc1ccccc1 (mixture of isomers) [Compound 15e, 1-O-octadecyl-2-O-benzyl-rac-glyceryl-phospho-RVn] | > 20 | 210 ± 62 | 763 ± 490 | > 20 | > 20 | 163 | 514 | 242 | 642 | 210 ± 4 | 350 ± 6 | 30.9 ± 7.7 |  |  | 
CCCCCCCCCCCCCCCCCCCCOP(=O)(O)OC[C@H]1O[C@](C#N)(c2ccc3c(N)ncnn23)[C@H](O)[C@@H]1O [Compound 4a, Eicosyl-phospho-RVn] | > 20 | 178 ± 35 | 1320 ± 566 | > 20 | > 20 | 1410 | 4750 | 1170 | 2180 | 910 | 1800 | > 50 |  |  | 
CCCCCCCCCCCCCCCCCCOCCOP(=O)(CO[C@H](C)Cn1cnc2c(N)nc(N)nc21)OCc1ccccc1 (stereo partly drawn) [ODE-Bn-PMPDAP, Octadecyloxyethyl benzyl 9-(R)-[(2-phosphonomethoxy)propyl]-2,6-diaminopurine] |  |  |  |  |  |  |  |  |  |  |  |  | active |  | 
2-(Octadecyloxy)ethyl benzyl phospho-RVn [Compound 6c] |  |  |  |  |  |  |  |  |  | 220 ± 56 | 440 ± 85 | > 50 |  |  | 
CCCCCCCCCCCCCCCCCCOC[C@@H](COP(=O)(O)OC[C@H]1O[C@@](C#N)(c2ccc3c(N)ncnn23)[C@H](O)[C@@H]1O)OCc1ccccc1 [Compound 15n, 3-O-Octadecyl-2-O-benzyl-sn-glyceryl-1-phospho-RVn] |  | 163 ± 22 | 623 ± 183 |  | > 20 |  |  |  |  |  |  |  |  |  | 
CCCCCCCCCCCCCCCCCCOCCOP1(=O)OCC2OC(C#N)(c3ccc4c(N)ncnn34)C(O)C2O1 (stereo not drawn) [Compound 19-ax] |  | 8150 ± 8420 | > 20000 |  | > 20 |  |  |  |  |  |  |  |  |  | 
